Key:
CD4 and CD8 T cells = assay: T cell proliferation and activation of PBMCs cultured in plasma from treated whole blood; type: cell-based, human
Procedure: To obtain plasma, whole blood was treated for 6 hours with 25 μg/mL β-glucan or vehicle, spun down and the plasma removed. 50,000 autologous CFSE-labeled PBMCs were cultured in the treated plasma for 3 days in the presence of 50,000 T cell activating CD3/28 beads (DYNABEADS Human T-Activator CD3/CD28 for T Cell Expansion and Activation). At the end of the culture, PBMCs were stained with CD4 and CD8 and T cell proliferation was measured by CFSE dilution.
Next, to show the effect of soluble β-glucan on CD4 and CD8 cell activation, the T cell proliferation assay described above was again carried out. At day 3, however, the cells were stained for markers of activation including Granzyme B production and CD25 upregulation.
To determine whether the enhancement of T cell proliferation by β-glucan is direct or indirect, T cell proliferation assays were carried out as described above except the plasma from untreated (vehicle) whole blood was then either treated with β-glucan or vehicle prior to adding to autologous PBMCs. CFSE dilution was quantitated by Division Index using FLOWJO software and plotted as fold change over vehicle control. The results shown in FIG. 5C indicate that β-glucan's enhanced effect is due to indirect mechanisms.

IL-4 = IL-4 analysis of co-culture supernatants; type: cell-based, human; settings: co-cultures of β-glucan-treated M2 macrophages and CD4 T cells
Procedure: CD14^+ monocytes from human whole blood were enriched using Ficoll gradient and magnetic bead separation. Enriched monocytes (5×10^5 cells per mL) were then cultured in either M1-polarizing (XVivo 10 media (Lonza Group) supplemented with 5% autologous serum and 100 ng/mL recombinant human granulocyte macrophage colony-stimulating factor (rhGM-CSF) (R&D Systems) or M2-polarizing (XVivo 10 media supplemented with 10% autologous serum and 50 ng/mL recombinant human macrophage colony-stimulating factor (rhM-CSF) (R&D Systems) conditions for 6 days. In experiments performed to evaluate the effect of β-glucan, whole blood was first incubated with vehicle (sodium citrate buffer) or 25 μg/mL soluble β-glucan for 2 hours at 37° C. and then the monocytes were isolated and differentiated. Morphology was checked before macrophages were harvested for phenotypic analysis. […] T cell proliferation was measured at the end of the experiment (day 9-day 11) by flow cytometry, and results are graphically shown as CFSE-dilution peaks. […] Quantitative results were reported as the Division Index (the average number of cell divisions a population underwent) calculated for each of the triplicate wells in each of the culture conditions. […]
Modulation of IFN-γ and IL-4 production of vehicle- and β-glucan-treated M2 macrophages was then evaluated. […]

M2 macrophages = assay: Flow cytometry of M1/M2-specific markers on M2 macrophages derived from vehicle- or β-glucan-treated whole blood; type: cell-based, human
Procedure: CD14^+ monocytes from human whole blood were enriched using Ficoll gradient and magnetic bead separation. Enriched monocytes (5×10^5 cells per mL) were then cultured in either M1-polarizing (XVivo 10 media (Lonza Group) supplemented with 5% autologous serum and 100 ng/mL recombinant human granulocyte macrophage colony-stimulating factor (rhGM-CSF) (R&D Systems) or M2-polarizing (XVivo 10 media supplemented with 10% autologous serum and 50 ng/mL recombinant human macrophage colony-stimulating factor (rhM-CSF) (R&D Systems) conditions for 6 days. In experiments performed to evaluate the effect of β-glucan, whole blood was first incubated with vehicle (sodium citrate buffer) or 25 μg/mL soluble β-glucan for 2 hours at 37° C. and then the monocytes were isolated and differentiated. Morphology was checked before macrophages were harvested for phenotypic analysis. Culture medium of the day 6 macrophage culture (MCM) was collected, spun down to remove contaminated cell pellet and then frozen down for subsequent cytokine analysis by ELISA or used to setup a co-culture with CD3 & CD28-stimulated CD4 T cells (MCM-CD4 T) for evaluation of either surface markers or CD4 T cell proliferation. The macrophages were used to setup a co-culture with CD3 & CD28- or CD3 only-stimulated CD4 T cells (Mac-CD4 T) on day 6 for evaluation of either surface marker modulation or effect on CD4 T cell proliferation. For Mac-CD4 T cell proliferation study, M1 or M2 macrophages were cultured with CD3 & CD28- or CD3 only-stimulated, CFSE-labeled, autologous CD4 T cells at a 1:10 ratio. T cell proliferation was measured at the end of the experiment (day 9-day 11) by flow cytometry, and results are graphically shown as CFSE-dilution peaks. The assessment of CD3-only stimulated T cells was always done on day 11. Quantitative results were reported as the Division Index (the average number of cell divisions a population underwent) calculated for each of the triplicate wells in each of the culture conditions. Culture supernatants of Mac-CD4 T co-cultures were collected for subsequent cytokine analysis.
M1 and M2 macrophages from vehicle- or β-glucan-treated whole blood were prepared as described above. […] In addition, surface expression of CD86 was enhanced as well as both protein and mRNA levels of PD-L1 (FIG. 2B).
Expression of a panel of markers was evaluated by flow cytometry for vehicle- and β-glucan-treated, high binder-derived M1 and M2 macrophages (CD163 was evaluated twice).
CD163 and CD86 were evaluated by flow cytometry for vehicle- and β-glucan-treated, low binder-derived M1 and M2 macrophages.
Phenotypic and functional evaluation of β-glucan-treated M2a and β-glucan-treated M2 macrophages in the presence of immunosuppressive cytokines was carried out. M2 or M2a macrophages were prepared as described above. On day 3, tumor-conditioned medium (TCM) was added M2 macrophage cultures to account for 70% of the volume of the culture and then evaluated for CD163 expression and functional activity on day 6. […] M2a macrophages were cultured in IL-4 as described above.
The β-glucan-treated M2a macrophages cultured in IL-4 and M2 macrophages cultured in TCM were first evaluated for CD163 and CD86 expression. CD163 and CD86 were evaluated by flow cytometry and median MFI was calculated for isotype control staining and surface antigen staining and the results are shown in Table 5.
Monocytes or M2 macrophages were prepared as described above. On day 3, TCM was added to account for 70% of the volume of the culture and then evaluated for PD-L1 expression with TCM and then again when co-cultured with CD4 T cells.

CD33+ MDSC = assay: MDSC in peripheral blood of a case study subject treated with IMPRIME PGG; type: in vivo, human; settings: post-infusion, cycle 8, day 1; within hours
From the text: Blood was drawn at various times from a case study subject undergoing treatment with IMPRIME PGG and analyzed for the presence of MDSC. The first blood draw was done pre-infusion, cycle 8, day 1. […] A second blood draw was done post-infusion, cycle 8, day 1. […] The last blood sample was drawn pre-infusion, cycle 8, day 15. The CD33^+ MDSC are again present in the peripheral blood.

[1] = M2 macrophages cultured in TCM (70% of volume, from day 3), immunosuppressive conditions
[2] = M2 macrophages, high binder, 25 μg/mL

β(1,6)-[poly-(1,3)-D-glucopyranosyl]-poly-β(1,3)-D-glucopyranose [β-glucan]
CD4 and CD8 proliferation (CFSE dilution) (CD4 and CD8 T cells; plasma from whole blood treated 6 hours with 25 μg/mL β-glucan, vs vehicle): significant enhancement | CD4 and CD8 cell activation (Granzyme B production, CD25 upregulation) (CD4 and CD8 T cells; β-glucan-treated plasma, day 3): enhances CD4 and CD8 cell activation | production of immunosuppressive cytokine IL-4 (IL-4): no change | CD86 median MFI (M2 macrophages; [1]): 2697 | CD163 median MFI (M2 macrophages; [1]): 1112 | CD86 median MFI (M2 macrophages; [2]): 2953 | CD163 (1) median MFI (M2 macrophages; [2]): 759 | CD163 (2) median MFI (M2 macrophages; [2]): 1153 | CD206 median MFI (M2 macrophages; [2]): 1056 | CD209 median MFI (M2 macrophages; [2]): 801 | CD274 (PD-L1) median MFI (M2 macrophages; [2]): 4427 | HLA-DR median MFI (M2 macrophages; [2]): 1007 | CD86 median MFI (M2 macrophages; M2 macrophages, low binder): 2284 | CD163 median MFI (M2 macrophages; M2 macrophages, low binder): 3315 | phenotypic markers on monocyte-derived macrophages (M2 macrophages; low binders, M1/M2 polarizing conditions (data not shown)): did not modulate | surface expression of CD86 (M2 macrophages; β-glucan-treated M2 macrophages): enhanced | surface expression of PD-L1 (M2 macrophages; β-glucan-treated M2 macrophages cultured in TCM): higher surface expression | HLA-DR expression (M2 macrophages; β-glucan-treated M2 macrophages cultured in TCM (data not shown)): higher | PD-L1 expression (M2 macrophages; β-glucan-treated M2 macrophages in TCM co-cultured with CD4 T cells): increased expression | mean fluorescence intensity (MFI) of CD163 (M2 macrophages; β-glucan-treated M2 macrophages, FIG. 2A): downmodulated | protein and mRNA levels of PD-L1 (M2 macrophages; β-glucan-treated M2 macrophages, FIG. 2B): enhanced | CD33+ MDSC in peripheral blood (CD33+ MDSC): transiently disappear

Reference: patent US10111901B2, “Beta-glucan in combination with anti-cancer agents affecting the tumor microenvironment” (Biothera, Inc., priority 2014, dated 2018)
